Tests used:
[1] = tested on: mature OCs; assay: in vitro osteoclast (OC) activity assay (bone resorption by mature OCs); assay type: cell-based, human; settings: day 10
[2] = tested on: proteins related to the VEGF pathway (VEGF, NRP-1, HIF1α); assay: IHC and single quantum-dot labeling of ARCaPM tumors in tibia sections, VEGF pathway proteins; assay type: in vivo, nude mice; settings: 10 mg/kg or 30 mg/kg, 7 weeks, vs vehicle
[3] = tested on: endothelial cells and tumor cells; assay: apoptosis of endothelial cells and tumor cells
[4] = tested on: Mouse KS482 cells; assay: in vitro osteoblast (OB) differentiation assay; assay type: cell-based; settings: day 8
[5] = oral bioavailability; settings: in vivo
[6] = tested on: CD34+ cells derived from human bone marrow; assay: in vitro osteoclast (OC) differentiation assay; assay type: cell-based; settings: day 7
[7] = tested on: castration-resistant prostate cancer (CRPC) with bone metastases; assay: Phase 2 trial (NCT00940225) case studies of CRPC patients with bone metastases treated with compound 1; assay type: in vivo, human
Excerpt: All patients provided informed consent before study screening.

[8] = tested on: Human CRPC ARCaPM cells; assay: ARCaPM in vivo efficacy study (intratibial xenografts); set-up: species or system nude mice
Procedure: Micro-CT-based quantification (Scanco 40 instrument) of 5 tibiae per group with 2 measurements each were used. ([…]) indicates vehicle tibia lacking detectable tumor in the section evaluated by histology. […] Bioquant® Image Analysis software was used for the histomorphometry of H&E-stained sections. Tumor (8A) and bone area (8B) were measured in the evaluated sections by tracing their outline within an area of 1×1 mm^2 (total tissue area) near the center of the growth plate. Percentages relative to the total tissue area were calculated. […] Bioquant® Image Analysis software was used for the histomorphometry of consecutive H&E- and TRAP-stained sections. (9A) Based on TRAP stain, OC numbers were counted along the border of the trabecular bone within the same tissue area used to assess tumor and bone area (FIG. 8). The ratio of OCs per bone perimeter (OC/mm) was calculated. (9B) OBs were counted along the trabecular bone surface in the same area on the H&E-stained sections and the number of OBs per bone perimeter (0 B/mm) was calculated. ([…]) indicates vehicle-treated mice without detectable tumor in the corresponding tumor area analysis (FIG. 8A). (A) indicates compound 1-treated mice with detectable tumor in the corresponding tumor area analysis (FIG. 8A).

[9] = phase 1 clinical study, tolerability
[10] = tested on: Mouse KS482 cells; assay: in vitro osteoblast (OB) bone-forming activity assay; assay type: cell-based
[11] = tested on: xenograft tumor models; assay: xenograft tumor models; settings: in vivo
[12] = tested on: pancreatic neuroendocrine tumor; assay: murine pancreatic neuroendocrine tumor model; settings: mouse, in vivo
[13] = 10 mg/kg or 30 mg/kg, 7 weeks, compared to vehicle
[14] = 10 mg/kg or 30 mg/kg, 7 weeks, relative to vehicle

In the case of `COc1cc2nccc(Oc3ccc(NC(=O)C4(C(=O)Nc5ccc(F)cc5)CC4)cc3)c2cc1OC` [Compound 1, N-(4-{[6,7-bis(methyloxy)quinolin-4-yl]oxy}phenyl)-N′-(4-fluorophenyl)cyclopropane-1,1-dicarboxamide], the “ability of mature OCs to resorb bone (secreted CTX normalized to TRACP 5b)” value [1] is reported as “does not affect”, the “IHC staining of proteins related to the VEGF pathway (VEGF, NRP-1, HIF1α) in ARCaPM tumors” value [2] is reported as “decreased IHC staining” and the “apoptosis of endothelial cells and tumor cells” value [3] is reported as “rapidly induces apoptosis”. The “OB differentiation (cellular ALP activity)” value [4] was “biphasic effects”, the oral bioavailability [5] was “orally bioavailable” and the “OC differentiation (secreted TRACP 5b levels)” value [6] was “inhibits in vitro osteoclast (OC) differentiation in a dose-dependent manner”. For the same compound, the “Hemoglobin (best response, change)” value ([7]; Patient 1, 100 mg dose) was “+1.4 g/dL”, the “Pain (best response)” value ([7]; Patient 1, 100 mg dose) was “Improvement” and the “Tumor response (best response)” value ([7]; Patient 1, 100 mg dose) was −41%. For the same compound, the “tALP (best response, change)” value ([7]; Patient 1, 100 mg dose) was −77%, the “increase in hemoglobin compared with baseline” value (from here on “increase in hemoglobin”) ([7]; Patient 1, Week 2) was 1.4 g/dL and the “CT scan response category” value ([7]; Patient 1, Week 6) was “partial response (PR)”. The “CT scan, decrease in measurable target lesions” value ([7]; Patient 1, Week 6) was 33%, the “bone scan, radiotracer uptake by bone metastases” value ([7]; Patient 1, Week 6) was “dramatic decrease in radiotracer uptake” and the “bone lesions on bone scan” value ([7]; Patient 1, Week 12) was “near complete resolution of bone lesions”. The “decrease in target lesions” value ([7]; Patient 1, Week 12, stable through Week 18) was 44%, the “adverse event leading to withdrawal” value ([7]; Patient 1, Week 18) was “Grade 3 diarrhea” and the PSA level ([7]; Patient 1, Week 18 (430 ng/mL at baseline)) was 93.5 ng/mL. For the same compound, the “serum tALP level” value ([7]; Patient 1, Week 18 (689 U/L at baseline)) was 159 U/L, the bone pain ([7]; Patient 1, four weeks after start) was “significant reduction in bone pain” and the “Bone scan (best response)” value ([7]; Patient 2, 100 mg dose) was “Improvement”. The “Hemoglobin (best response, change)” value ([7]; Patient 2, 100 mg dose) was “+1.8 g/dL”, the “Pain (best response)” value ([7]; Patient 2, 100 mg dose) was “Pain-free” and the “Tumor response (best response)” value ([7]; Patient 2, 100 mg dose) was −20%. The “tALP (best response, change)” value ([7]; Patient 2, 100 mg dose) was −6%, the bone pain ([7]; Patient 2, Week 4) was “reduction in bone pain” and the “CT scan, decrease in target lesions” value ([7]; Patient 2, Week 6) was 13%. The “bone scan, radiotracer uptake by bone lesions” value ([7]; Patient 2, Week 6) was “slight flair in radiotracer uptake”, the “bone scan, radiotracer uptake” value ([7]; Patient 2, Week 12) was “substantial reduction of radiotracer uptake” and the “decrease in measurable disease” value ([7]; Patient 2, Week 12) was 20%. For the same compound, the “increase in hemoglobin” value ([7]; Patient 2, Week 12) was 1.8 g/dL, the “Hemoglobin (best response, change)” value ([7]; Patient 3, 100 mg dose) was “+2.2 g/dL” and the “PSA (best response, change)” value ([7]; Patient 3, 100 mg dose) was −57%. For the same compound, the “Pain (best response)” value ([7]; Patient 3, 100 mg dose) was “Pain-free”, the “Tumor response (best response)” value ([7]; Patient 3, 100 mg dose) was −51% and the “tALP (best response, change)” value ([7]; Patient 3, 100 mg dose) was −77%. For the same compound, the “increase in hemoglobin” value ([7]; Patient 3, Week 2) was 2.2 g/dL, the “CT scan, decrease in measurable target lesions” value ([7]; Patient 3, Week 6) was 43% and the “bone scan, radiotracer uptake” value ([7]; Patient 3, Week 6) was “dramatic reduction in radiotracer uptake”. For the same compound, the “bone lesions on bone scan” value ([7]; Patient 3, Week 12) was “complete resolution of bone lesions”, the “decrease in measurable disease” value ([7]; Patient 3, Week 12) was 51% and the PSA level ([7]; Patient 3, Week 18 (2.4 ng/mL at screening)) was 1.2 ng/mL. For the same compound, the “serum tALP level” value ([7]; Patient 3, Week 18 (869 U/L at baseline)) was 197 U/L, the pain ([7]; Patient 3, after three weeks) was “complete resolution of pain” and the “osteoblasts (OBs) along the trabecular bone, tibia sections” value [8, 13] was “increased OBs”. The “osteoclasts (OCs) along the trabecular bone, tibia sections” value [8, 13] was “no change in OCs”, the “bone mineral density, micro-CT” value [8, 14] was “preserves” and the “bone volume/tissue volume (BV/TV), micro-CT” value [8, 14] was “preserves”. The “progression of CRPC ARCaPM tumor xenografts in bone (X-ray, micro-CT of tibiae)” value ([8]; 30 mg/kg, 7 weeks of treatment, vs vehicle) was “blocks progression”, the “progression of CRPC ARCaPM tumor xenografts in bone (H&E stain of tibia sections)” value ([8]; 7 weeks of treatment, vs vehicle) was “blocks progression” and the “most commonly observed adverse events” value [9] was “fatigue, diarrhea, anorexia, rash, and palmar-plantar erythrodysesthesia”. For the same compound, the tolerability [9] was “generally well-tolerated”, the “OB bone forming activity (organic and inorganic bone matrix)” value [10] was “biphasic effects” and the “tumor growth in xenograft tumor models” value [11] was “causes tumor regression”. The overall survival [12] was “substantially improves” and the “tumor invasiveness and metastasis” value [12] was “significantly reduces”.
